Measurements as given in PubChem BioAssay AID2060902 (Molecular Pharmacology Branch, DTP, NCI, 2025).

System: 485368-065-R3-J5-PDC spheroids with HUVEC/MSC, viability
Assay: Anticancer human tumor 485368-065-R3-J5-PDC patient-derived pancreatic carcinoma cell line growth inhibition [RAS]
Conditions: for IC50: curve of first compound; for viability, T/C: stronger effect = lower value
Procedure, shortened: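 Multi-cell-type spheroids: tumor cells plus HUVEC endothelial cells and mesenchymal stem cells. RAS-pathway inhibitors were combined with targeted agents, each dosed in half-log steps down from clinical Cmax, or from 10 microM when Cmax was unknown.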

[1] = second compound 0.000949 µM, first compound 0.0316 µM
[2] = second compound 0.000949 µM, first compound 0.1 µM
[3] = second compound 0.000949 µM, first compound 0.316 µM
[4] = second compound 0.000949 µM, first compound 1 µM
[5] = second compound 0.000949 µM, first compound 3.16 µM
[6] = second compound 0.000949 µM, first compound 10 µM
[7] = second compound 0.003 µM, first compound 0.0316 µM
[8] = second compound 0.003 µM, first compound 0.1 µM
[9] = second compound 0.003 µM, first compound 0.316 µM
[10] = second compound 0.003 µM, first compound 1 µM
[11] = second compound 0.003 µM, first compound 3.16 µM
[12] = second compound 0.003 µM, first compound 10 µM
[13] = second compound 0.00949 µM, first compound 0.0316 µM
[14] = second compound 0.00949 µM, first compound 0.1 µM
[15] = second compound 0.00949 µM, first compound 0.316 µM
[16] = second compound 0.00949 µM, first compound 1 µM
[17] = second compound 0.00949 µM, first compound 3.16 µM
[18] = second compound 0.00949 µM, first compound 10 µM
[19] = second compound 0.03 µM, first compound 0.0316 µM
[20] = second compound 0.03 µM, first compound 0.1 µM
[21] = second compound 0.03 µM, first compound 0.316 µM
[22] = second compound 0.03 µM, first compound 1 µM
[23] = second compound 0.03 µM, first compound 3.16 µM
[24] = second compound 0.03 µM, first compound 10 µM
[25] = second compound 0.0949 µM, first compound 0.0316 µM
[26] = second compound 0.0949 µM, first compound 0.1 µM
[27] = second compound 0.0949 µM, first compound 0.316 µM
[28] = second compound 0.0949 µM, first compound 1 µM
[29] = second compound 0.0949 µM, first compound 3.16 µM
[30] = second compound 0.0949 µM, first compound 10 µM
[31] = second compound 0.3 µM, first compound 0.0316 µM
[32] = second compound 0.3 µM, first compound 0.1 µM
[33] = second compound 0.3 µM, first compound 0.316 µM
[34] = second compound 0.3 µM, first compound 1 µM
[35] = second compound 0.3 µM, first compound 3.16 µM
[36] = second compound 0.3 µM, first compound 10 µM
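Note: spheroids exposed to agents for seven days before readout.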

Molecule CC1(O)CCCC1n1c(=O)c(C(F)F)cc2cnc(NC3CCN(S(C)(=O)=O)CC3)nc21 (centres undefined) + CCn1c(-c2cccnc2C(C)OC)c2c3cc(ccc31)N1CCOC(CC(NC(=O)C(C(C)C)N(C)C(=O)C3(F)CCN(C(=O)C#CC(C)(C)N(C)C)CC3)C(=O)N3CCCC(N3)C(=O)OCC(C)(C)C2)C1 has an IC50 (second compound 0.000949 µM) of 279 nM, an IC50 (second compound 0.003 µM) of 722 nM and an IC50 (second compound 0.00949 µM) of 580 nM. The IC50 (second compound 0.03 µM) was 254 nM, the IC50 (second compound 0.0949 µM) was 636 nM and the IC50 (second compound 0.3 µM) was 656 nM. The viability, T/C [1] was 106%, the viability, T/C [2] was 79.2% and the viability, T/C [3] was 44.9%. For the same molecule, the viability, T/C [4] was 40.2%, the viability, T/C [5] was 46% and the viability, T/C [6] was 24.5%. It also gave a viability, T/C [7] of 91.4%, a viability, T/C [8] of 82.9% and a viability, T/C [9] of 50.4%. It also gave a viability, T/C [10] of 41.9%, a viability, T/C [11] of 48.5% and a viability, T/C [12] of 21.3%. For the same molecule, the viability, T/C [13] was 92.8%, the viability, T/C [14] was 77.1% and the viability, T/C [15] was 42.9%. The viability, T/C [16] was 48.2%, the viability, T/C [17] was 44.8% and the viability, T/C [18] was 18%. It also gave a viability, T/C [19] of 97.6%, a viability, T/C [20] of 88.6% and a viability, T/C [21] of 40.8%. The viability, T/C [22] was 41.2%, the viability, T/C [23] was 49.2% and the viability, T/C [24] was 17.4%. It also gave a viability, T/C [25] of 96%, a viability, T/C [26] of 80% and a viability, T/C [27] of 48.5%. For the same molecule, the viability, T/C [28] was 41.2%, the viability, T/C [29] was 49.8% and the viability, T/C [30] was 17.4%. For the same molecule, the viability, T/C [31] was 105%, the viability, T/C [32] was 86.1% and the viability, T/C [33] was 47%. It also gave a viability, T/C [34] of 44.8%, a viability, T/C [35] of 48.5% and a viability, T/C [36] of 13.1%.

In the case of CCC(CC)c1cc(NC2CCC(N)C2)n2nccc2n1 (centres undefined) + CCn1c(-c2cccnc2C(C)OC)c2c3cc(ccc31)N1CCOC(CC(NC(=O)C(C(C)C)N(C)C(=O)C3(F)CCN(C(=O)C#CC(C)(C)N(C)C)CC3)C(=O)N3CCCC(N3)C(=O)OCC(C)(C)C2)C1, the IC50 (second compound 0.000949 µM) is reported as 1980 nM, the IC50 (second compound 0.003 µM) is reported as 2010 nM and the IC50 (second compound 0.00949 µM) is reported as 1990 nM. It also gave an IC50 (second compound 0.03 µM) of 2030 nM, an IC50 (second compound 0.0949 µM) of 2040 nM and an IC50 (second compound 0.3 µM) of 2000 nM. The viability, T/C [1] was 104%, the viability, T/C [2] was 97.3% and the viability, T/C [3] was 116%. For the same molecule, the viability, T/C [4] was 133%, the viability, T/C [5] was 5.59% and the viability, T/C [6] was 9.62%. For the same molecule, the viability, T/C [7] was 102%, the viability, T/C [8] was 109% and the viability, T/C [9] was 116%. For the same molecule, the viability, T/C [10] was 133%, the viability, T/C [11] was 5.13% and the viability, T/C [12] was 10.4%. For the same molecule, the viability, T/C [13] was 95.7%, the viability, T/C [14] was 112% and the viability, T/C [15] was 101%. For the same molecule, the viability, T/C [16] was 138%, the viability, T/C [17] was 4.94% and the viability, T/C [18] was 11.5%. For the same molecule, the viability, T/C [19] was 104%, the viability, T/C [20] was 103% and the viability, T/C [21] was 112%. For the same molecule, the viability, T/C [22] was 152%, the viability, T/C [23] was 4.96% and the viability, T/C [24] was 11%. It also gave a viability, T/C [25] of 105%, a viability, T/C [26] of 108% and a viability, T/C [27] of 114%. For the same molecule, the viability, T/C [28] was 149%, the viability, T/C [29] was 5.12% and the viability, T/C [30] was 10.1%. For the same molecule, the viability, T/C [31] was 108%, the viability, T/C [32] was 111% and the viability, T/C [33] was 120%. The viability, T/C [34] was 123%, the viability, T/C [35] was 4.15% and the viability, T/C [36] was 9.84%.
